We go through one substance from US9012397B2 (priority 2011, dated 2015).

Like-named read-outs stand apart in the source and are kept apart here.

Common to all, as to format: in vivo, human
In one assay the test system is mosquito bites. As for the experimental part: (§1) The method of the invention has been carried out with respect to a number of skin disorders. The patients were treated with one of two peptides, each at a concentration of 50 μg/gr cream (unless otherwise indicated):
(§2) The cream was manufactured by Amiga LTD, Israel, and contains the following components:
8. males and four females suffered from mosquito bites. […]
9. 3 subjects suffering from mosquito bites were treated with ZEP3.

The next assay concerns burns. As for the experimental part:
as §1, §2
1. A person was lightly burned on the back of the hand which touched a very hot object. ZEP4 was immediately applied to the burn site. • Results: the burn mark disappeared within 1 hour. No additional treatments were necessary.
2. A person was severely burned by boiling water on the palm of the hand. […] At the end of 2 weeks there was no sign of the burn, nor thereafter.
3. person two was lightly burned on their finger from boiling oil. […] No further treatments were necessary.
5. A person was burnt on their hand from an oven. […] The burn took on a light brown color.
6. 4 light burn cases, three from touching a hot surface and one from a chemical substance in a laboratory, were treated with ZEP3.
8. person three with irritated skin on the hand due to the rubbing of a watch band. The irritated skin came into contact with a chemical substance (used as a disinfectant). A severe redness developed similar to a burn, and a strong itching feeing. […] D. Oral Cavity

A further assay deals with skin infection. As for the experimental part: as §1, §2
1. person two suffered from an infection on the wrist of the left hand, apparently an allergic reaction to a watch band. Large spots appeared around the wrist accompanied by redness.
2. person three suffered from an infection on the wrist of the left hand, apparently an allergic reaction to a watch band. Large spots appeared around the wrist accompanied by redness and itching.
3. 2 cases of infected skin wounds.

Where [1] appears, read: person three, wrist infection, allergic reaction to watch band, 500 μg/gr cream several times a day.

pGLU-ASN-TRP-LYS-C8 [ZEP3]: the clinical outcome was “found to be therapeutic both for the itching and for the healing” in the assay with mosquito bites (3 subjects, 50 μg/gr cream); “an immediate relief from the itching sensation was felt” in the assay on mosquito bites (two males and four females, 30-57 years old, (500 μg/gr cream) as needed); “found to be therapeutic both for the pain and for the healing” with burns (4 light burn cases (three hot surface, one chemical substance), 50 μg/gr cream); “immediate relief from the redness and itching” in the assay with burns (person three, irritated skin on hand contacted a disinfectant, burn-like redness and itching, ZEP4 and ZEP3 each 500 μg/gr cream); “aided in the healing of the wounds” in the assay on skin infection (2 cases of infected skin wounds, 50 μg/gr cream); “immediate relief from the itching” in the assay with skin infection (setting [1]). Further, the “time to decrease in redness” value with skin infection (setting [1]) is ≤ 24 h.
